Measurements from ChEMBL document CHEMBL4359874, “Synthesis of novel tellurides bearing benzensulfonamide moiety as carbonic anhydrase inhibitors with antitumor activity” (Eur J Med Chem, 2019).
Activity calls are given as the source filed them. The calls are words filed in the database; no cut-off is given here.

Key:
Carbonic anhydrase 9 = Carbonic anhydrase 9 (Homo sapiens, UniProt Q16790); test: Inhibition of recombinant human carbonic anhydrase 9 preincubated for 15 mins by phenol red dye based stopped flow CO2 hydration assay
MDA-MB-231 [1] = test: Cytotoxicity against human MDA-MB-231 cells assessed as reduction in cell viability at 10 uM after 48 hrs under normoxia condition by MTT assay; type: functional, cell-based
MDA-MB-231 [2] = test: Cytotoxicity against human MDA-MB-231 cells assessed as reduction in cell viability at 3 uM after 48 hrs under hypoxia condition by MTT assay relative to control; type: functional
MDA-MB-231 [3] = test: Cytotoxicity against human MDA-MB-231 cells assessed as reduction in cell viability at 3 uM after 48 hrs under normoxia condition by MTT assay relative to control; type: functional
MDA-MB-231 [4] = test: Cytotoxicity against human MDA-MB-231 cells assessed as reduction in cell viability at 30 uM after 48 hrs under hypoxia condition by MTT assay relative to control; type: functional
MDA-MB-231 [5] = test: Cytotoxicity against human MDA-MB-231 cells assessed as reduction in cell viability at 3 to 10 uM after 48 hrs under normoxia condition by MTT assay; type: functional, cell-based

| SMILES | Ki (Carbonic anhydrase 9) [nM] | also measured |
| --- | --- | --- |
| COc1ccc([Te]CC(O)COc2ccc(S(N)(=O)=O)cc2)cc1 (centres undefined) | 7.8 | – |
| NS(=O)(=O)c1ccc(OCC(O)C[Te]c2ccccc2)cc1 (centres undefined) | 14.8 | – |
| Cc1ccc([Te]CC(O)COc2ccc(S(N)(=O)=O)cc2)cc1 (centres undefined) | 118 | – |
| CC[Te]CC(O)COc1ccc(S(N)(=O)=O)cc1 (centres undefined) | 40.7 | – |
| Cc1ccccc1[Te]CC(O)COc1ccc(S(N)(=O)=O)cc1 (centres undefined) | 9.5 | Activity (MDA-MB-231 [1]): Active; Activity (MDA-MB-231 [2]): 32%; Activity (MDA-MB-231 [3]): >50%; Activity (MDA-MB-231 [4]): >50% |
| NS(=O)(=O)c1ccc(OCC(O)C[Te]c2ccc3ccccc3c2)cc1 (centres undefined) | 6.4 | Activity (MDA-MB-231 [5]): Active; Activity (MDA-MB-231 [4]): 90% |
| CCCC[Te]CC(O)COc1ccc(S(N)(=O)=O)cc1 (centres undefined) | 333 | – |
| NS(=O)(=O)c1ccc(OCC(O)C[Te]CC(O)COc2ccc(S(N)(=O)=O)cc2)cc1 (centres undefined) | 809 | – |
